According to publication PMC5113906, “Ligand autoradiographical quantification of histamine H3 receptor in human dementia with Lewy bodies” (Pharmacological Research, 2016):

Biological target: T1, histamine H3 receptor (hH3R 445) (Homo sapiens, UniProt Q9Y5N1)
T1 construct: gene HRH3; hH3 445 isoform (also hH3 365), transiently expressed in HEK293 cells
Assay: [3H]GSK189254 saturation radioligand binding; autoradiography on human brain sections

T1 sequence (Q9Y5N1 whole entry, canonical isoform): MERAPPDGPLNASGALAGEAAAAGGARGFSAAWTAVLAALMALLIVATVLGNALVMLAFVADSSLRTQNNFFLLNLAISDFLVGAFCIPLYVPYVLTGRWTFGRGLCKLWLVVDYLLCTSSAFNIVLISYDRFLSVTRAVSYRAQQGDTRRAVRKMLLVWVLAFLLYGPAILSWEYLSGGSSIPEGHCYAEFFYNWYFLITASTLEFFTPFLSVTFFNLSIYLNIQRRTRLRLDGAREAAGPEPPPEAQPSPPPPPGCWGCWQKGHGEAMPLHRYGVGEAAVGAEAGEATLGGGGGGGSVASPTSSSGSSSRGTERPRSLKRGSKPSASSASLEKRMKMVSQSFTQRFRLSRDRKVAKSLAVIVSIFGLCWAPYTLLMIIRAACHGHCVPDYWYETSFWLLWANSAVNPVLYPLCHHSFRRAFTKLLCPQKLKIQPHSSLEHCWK

Kd: 0.16 ± 0.04 nM
Structure (SMILES): CNC(=O)c1ccc(Oc2ccc3c(c2)CCN(C2CCC2)CC3)nc1 [GSK189254]
